The values below come from patent US20250179057A1, “MEK IMMUNE ONCOLOGY INHIBITORS AND THERAPEUTIC USES THEREOF” (Immuneering Corporation, priority 2022, published 2025).

Data set [1] in a line: Liver microsome stability (% remaining at 1 hour), CD-1 mouse. It is filed as in vitro ADME. Conditions: 2 μM. As to the method:
Materials and Methods: Individual stock solutions of Test Articles (TA) were prepared at 30 mM in DMSO and were further diluted to 2 mM in DMSO. […] Prior to use in the assay, the 2 mM stock solutions were diluted 10-fold with acetonitrile. The acetonitrile diluted stocks were diluted 1:50 into warm (37° C.) 0.1 M potassium phosphate, pH 7.4, containing 2.0 mM NADPH (2× final assay concentration). Frozen liver microsomes were quick thawed in a 37° C. water bath and then placed on ice. […] The plate was incubated with gentle shaking at 37° C. Duplicate 30 μL aliquots were removed immediately after compound addition (To: time zero) and at 60 minutes. […] The quenched samples were gently mixed and were stored in a −20° C. freezer for at least 30 minutes. […]
Data Collection and Calculations: Analyst (AB Sciex) and Acquity (Waters) were used for data acquisition. Results were calculated using Microsoft Excel.
Peak area ratios for IS-normalized test article counts were used to calculate the percent remaining relative to the time zero (T0) value. As appropriate, results were plotted and further analyzed to calculate half-life (T1/2) and CLint values. […]
Results were plotted [ln (% remaining) vs. incubation time] and further analyzed to calculate half-life (T1/2) values: […]

Data set [2] has as its system phospho-ERK in MEL-JUSO cells. Description: pERK/tERK ratio in MEL-JUSO melanoma model. The settings on record: MEL-JUSO (HRAS p.G13D, NRAS p.Q61L); 100 nM. It is filed as cell-based. As to the method: (§1) Compound (drug) treatment: Cells were plated in a 6-well plate at a density of 250,000-300,000 cells/well in 3 mL media and incubated 37° C. in a humidified, 5% CO2 incubator. […] These solutions were added to the cells (3 uL/well), mixed by swirling the plate, and incubated at 37° C. in a humidified, 5% CO2 incubator for 2 hours.
(§2) Cell lysis and protein estimation: Cells were washed with PBS, and scraped in 50 μL of lysis buffer containing protease and phosphatase inhibitors. Cell lysates were stored at −20° C. Cell lysates were thawed and spun at 12,000 rpm for one minute, 3 ul of the supernatant was added to 500 μL of Coomassie blue reagent following by 500 μL of water. […] Protein standards were used (0-20 mg/mL) to calculate protein concentrations of test samples.
(§3) All samples were heated at 95° C. for 5 minutes, cooled to room temperature and spun down. […] After the run, gel was removed and protein transfer was done using iBlot for 7 minutes, as per manufacturer's recommendations. After the transfer, nitrocellulose membrane was incubated on a shaker in 5 mL of blocking buffer at room temperature for 1 hr. The blot was then incubated overnight on a shaker in 5 ml of blocking buffer containing 0.2% Tween-20 and primary antibody, at room temperature. Anti-phospho-STAT3 antibody was used at a dilution of 1:500, the other 3 primary antibodies were used at a dilution of 1:1000.
(§4) Next day, the blot was washed 3 times for 10 min each with 10 mL of TBST followed by incubation on a shaker in 5 ml of blocking buffer containing 0.2% Tween-20 and 0.5 ul of the IRDye labeled secondary antibodies, diluted 1:10000, at room temperature for 1 hr. The blot was then washed 3 times for 10 min each with 10 mL of TBST and dried between sheets of paper towels. Imaging was done using LICOR's Odyssey imaging system, quantitation was done using their software, Image Studio version 3.1.
(§5) The nine models are described in Table 16.

The subject of data set [3] is phospho-ERK in SK-MEL-30 cells. Description: pERK/tERK ratio in SK-MEL-30 melanoma model. Conditions: SK-MEL-30 (NRAS p.Q61K); 100 nM. The data set is classed as cell-based. As to the method: as §1, §2, §3, §4, §5
Data set [4] deals with phospho-ERK in MeWo cells. In words: pERK/tERK ratio in MeWo melanoma model. It is filed as cell-based. Conditions: MeWo (NF1 LoF); 100 nM. As to the method: as §1, §2, §3, §4, §5
Data set [5] relates to phospho-MEK in SK-MEL-2 cells. Description: pMEK/tMEK ratio in SK-MEL-2 melanoma model. It is filed as cell-based. The settings on record: SK-MEL-2 (NRAS p.Q61R); 100 nM. As to the method: as §1, §2, §3, §4, §5
In data set [6] the test system is phospho-MEK in MM127 cells. In words: pMEK/tMEK ratio in MM127 melanoma model. The data set is classed as cell-based. Conditions: MM127 (NRAS p.G13R, BRAF p.G464E); 100 nM. As to the method:
as §1, §2, §3, §4, §5

For data set [7], the system named is phospho-MEK in MM415 cells. Description: pMEK/tMEK ratio in MM415 melanoma model. It is filed as cell-based. As to the method: as §1, §2, §3, §4, §5
The conditions of data set [8]: PubChem Compound Summary; cited from earlier work.

Like-named read-outs stand apart in the source and are kept apart here.

Take `Cn1cnc2c(F)c(Nc3ccc(Br)cc3Cl)c(C(=O)NOCCO)cc21` [Reference-1, Selumetinib]: the “CD-1 Mouse (% Reamining @1 hour)” value in data set [1] (liver microsomes, 1 hour) is given as 13.9%. Moreover, the entries for the “pERK/tERK ratio normalized to DMSO” value in data set [2], in data set [3] and in data set [4] were 0.179, 0.163 and 0.196, respectively. For the same molecule, the “pMEK/tMEK ratio normalized to DMSO” value in data set [5] was 2.055; in data set [6], 2.341; in data set [7], 2.386. Besides, the “human plasma drug half-life” value in data set [8] was not below 6.2 h.

Turning to `CNS(=O)(=O)Nc1nccc(Cc2c(C)c3ccc(Oc4ncccn4)cc3oc2=O)c1F` [Reference-2, reference compound], the “CD-1 Mouse (% Reamining @1 hour)” value in data set [1] (CD-1, mouse, 1 h, pH 7.4) was determined as 96.0%.

Consider `CNS(=O)(=O)Nc1cccc(Cc2c(CN(C)C)c3ccc(OC(=O)N(C)C)cc3oc2=O)c1Cl` [Compound 274, 3-(2-chloro-3-((N-methylsulfamoyl)amino)benzyl)-4-((dimethylamino)methyl)-2-oxo-2H-chromen-7-yl dimethylcarbamate], for which the “pERK/tERK ratio normalized to DMSO” value in data set [2] stood at 0.631; in data set [3], 0.521; in data set [4] it was 0.519. Besides, the “pMEK/tMEK ratio normalized to DMSO” value in data set [5] stood at 0.518; in data set [6], 0.773; in data set [7] (MM415 (NRAS p.Q61L), 100 nM) it was 0.58.
